According to the NIST ThermoML archive (doi:10.1016/j.jct.2006.09.012):
Values joined by “and” are separate entries in the source; they are usually repeats but may differ in a detail not shown here. Equal values may be shown once. ± gives the expanded uncertainty stated by the source.

Conditions: Gas, Buoyancy - hydrostatic balance with magnetic suspension - two sinkers

With `[He]` [helium] the mass density (223.15 K, 1881.4 kPa) was 4.0102 ± 0.0033 kg/m3 and 4.0101 ± 0.0033 kg/m3, the mass density (223.15 K, 1881.5 kPa) was 4.0102 ± 0.0033 kg/m3 and the mass density (223.15 K, 3970 kPa) was 8.3499 ± 0.0037 kg/m3. The mass density (223.15 K, 3970.1 kPa) was 8.3501 ± 0.0037 kg/m3 and 8.3499 ± 0.0037 kg/m3 and 8.35 ± 0.0037 kg/m3, the mass density (223.15 K, 3970.2 kPa) was 8.3499 ± 0.0037 kg/m3 and the mass density (223.15 K, 8133.1 kPa) was 16.67 ± 0.011 kg/m3 and 16.6699 ± 0.011 kg/m3 and 16.6701 ± 0.011 kg/m3. For the same molecule, the mass density (223.15 K, 8133.2 kPa) was 16.6699 ± 0.011 kg/m3 and 16.6701 ± 0.011 kg/m3, the mass density (223.15 K, 11880 kPa) was 23.8087 ± 0.013 kg/m3 [middle of 5 runs] and the mass density (223.15 K, 15827 kPa) was 30.9985 ± 0.016 kg/m3. For the same molecule, the mass density (223.15 K, 15828 kPa) was 30.9993 ± 0.016 kg/m3 [middle of 4 runs], the mass density (223.15 K, 19642 kPa) was 37.6507 ± 0.021 kg/m3 [middle of 4 runs] and the mass density (223.15 K, 26024 kPa) was 48.1863 ± 0.03 kg/m3 and 48.1868 ± 0.03 kg/m3. For the same molecule, the mass density (223.15 K, 26025 kPa) was 48.1881 ± 0.03 kg/m3 and 48.1886 ± 0.03 kg/m3 and 48.1887 ± 0.03 kg/m3, the mass density (223.15 K, 32014 kPa) was 57.4666 ± 0.042 kg/m3 and the mass density (223.15 K, 32015 kPa) was 57.4668 ± 0.042 kg/m3 and 57.4679 ± 0.042 kg/m3. It also gave a mass density (223.15 K, 32016 kPa) of 57.4684 ± 0.042 kg/m3, a mass density (223.15 K, 32017 kPa) of 57.4698 ± 0.042 kg/m3 and a mass density (223.15 K, 38281 kPa) of 66.6119 ± 0.055 kg/m3. For the same molecule, the mass density (223.15 K, 38282 kPa) was 66.6131 ± 0.055 kg/m3 and 66.6126 ± 0.055 kg/m3, the mass density (223.15 K, 38283 kPa) was 66.614 ± 0.055 kg/m3 and the mass density (223.15 K, 38284 kPa) was 66.616 ± 0.055 kg/m3. For the same molecule, the mass density (253.15 K, 1929.2 kPa) was 3.629 ± 0.0031 kg/m3 and 3.6292 ± 0.0031 kg/m3, the mass density (253.15 K, 1929.3 kPa) was 3.629 ± 0.0031 kg/m3 and 3.6294 ± 0.0031 kg/m3 and 3.6292 ± 0.0031 kg/m3 and the mass density (253.15 K, 3784.6 kPa) was 7.046 ± 0.0035 kg/m3 and 7.0462 ± 0.0035 kg/m3 and 7.0461 ± 0.0035 kg/m3. The mass density (253.15 K, 7472.2 kPa) was 13.634 ± 0.0094 kg/m3, the mass density (253.15 K, 7472.3 kPa) was 13.634 ± 0.0094 kg/m3 and the mass density (253.15 K, 11895 kPa) was 21.202 ± 0.011 kg/m3 and 21.2018 ± 0.011 kg/m3. The mass density (253.15 K, 11896 kPa) was 21.2023 ± 0.011 kg/m3 and 21.2022 ± 0.011 kg/m3 and 21.2019 ± 0.011 kg/m3, the mass density (253.15 K, 15957 kPa) was 27.8548 ± 0.014 kg/m3 and the mass density (253.15 K, 15958 kPa) was 27.8555 ± 0.014 kg/m3 [middle of 4 runs]. The mass density (253.15 K, 19865 kPa) was 34.0064 ± 0.018 kg/m3 and 34.007 ± 0.018 kg/m3, the mass density (253.15 K, 19866 kPa) was 34.0081 ± 0.018 kg/m3 and 34.0112 ± 0.018 kg/m3 and the mass density (253.15 K, 25976 kPa) was 43.1785 ± 0.026 kg/m3. The mass density (253.15 K, 25977 kPa) was 43.179 ± 0.026 kg/m3 and 43.1796 ± 0.026 kg/m3, the mass density (253.15 K, 25978 kPa) was 43.181 ± 0.026 kg/m3 and 43.1801 ± 0.026 kg/m3 and the mass density (253.15 K, 31938 kPa) was 51.6436 ± 0.035 kg/m3 and 51.6443 ± 0.035 kg/m3. The mass density (253.15 K, 31940 kPa) was 51.647 ± 0.035 kg/m3 and 51.6462 ± 0.035 kg/m3 and 51.6454 ± 0.035 kg/m3, the mass density (253.15 K, 37813 kPa) was 59.5651 ± 0.046 kg/m3 and the mass density (253.15 K, 37814 kPa) was 59.5664 ± 0.046 kg/m3. For the same molecule, the mass density (253.15 K, 37815 kPa) was 59.5673 ± 0.046 kg/m3, the mass density (253.15 K, 37816 kPa) was 59.5686 ± 0.046 kg/m3 and the mass density (253.15 K, 37817 kPa) was 59.5703 ± 0.046 kg/m3. For the same molecule, the mass density (273.16 K, 935.8 kPa) was 1.6415 ± 0.0026 kg/m3, the mass density (273.16 K, 935.9 kPa) was 1.6416 ± 0.0026 kg/m3 and 1.6415 ± 0.0026 kg/m3 and the mass density (273.16 K, 1881.8 kPa) was 3.2839 ± 0.003 kg/m3. For the same molecule, the mass density (273.16 K, 1927.3 kPa) was 3.363 ± 0.003 kg/m3 and 3.3629 ± 0.003 kg/m3, the mass density (273.16 K, 1927.4 kPa) was 3.3629 ± 0.003 kg/m3 and 3.363 ± 0.003 kg/m3 and the mass density (273.16 K, 1956.4 kPa) was 3.4135 ± 0.003 kg/m3. The mass density (273.16 K, 1956.5 kPa) was 3.4135 ± 0.003 kg/m3 and 3.4134 ± 0.003 kg/m3, the mass density (273.16 K, 3626.6 kPa) was 6.273 ± 0.0034 kg/m3 and 6.2731 ± 0.0034 kg/m3 and the mass density (273.16 K, 3626.7 kPa) was 6.2732 ± 0.0034 kg/m3. The mass density (273.16 K, 3626.8 kPa) was 6.2735 ± 0.0034 kg/m3, the mass density (273.16 K, 3926.1 kPa) was 6.7802 ± 0.0033 kg/m3 and the mass density (273.16 K, 3926.2 kPa) was 6.7804 ± 0.0033 kg/m3 and 6.7802 ± 0.0033 kg/m3 and 6.7803 ± 0.0033 kg/m3. It also gave a mass density (273.16 K, 3952.8 kPa) of 6.8257 ± 0.0034 kg/m3, a mass density (273.16 K, 3952.9 kPa) of 6.8257 ± 0.0034 kg/m3 and a mass density (273.16 K, 3975.1 kPa) of 6.8634 ± 0.0033 kg/m3. The mass density (273.16 K, 3975.2 kPa) was 6.8633 ± 0.0033 kg/m3 and 6.8635 ± 0.0033 kg/m3, the mass density (273.16 K, 7764.9 kPa) was 13.1534 ± 0.0081 kg/m3 and the mass density (273.16 K, 7765.3 kPa) was 13.1538 ± 0.0081 kg/m3. It also gave a mass density (273.16 K, 7765.7 kPa) of 13.1545 ± 0.0081 kg/m3, a mass density (273.16 K, 7766.1 kPa) of 13.1555 ± 0.0081 kg/m3 and a mass density (273.16 K, 7766.6 kPa) of 13.1563 ± 0.0081 kg/m3. For the same molecule, the mass density (273.16 K, 7916 kPa) was 13.399 ± 0.0084 kg/m3, the mass density (273.16 K, 7916.1 kPa) was 13.3992 ± 0.0084 kg/m3 and 13.399 ± 0.0084 kg/m3 and 13.3991 ± 0.0084 kg/m3 and the mass density (273.16 K, 7973.3 kPa) was 13.4919 ± 0.0083 kg/m3. For the same molecule, the mass density (273.16 K, 7973.4 kPa) was 13.4923 ± 0.0083 kg/m3 and 13.4922 ± 0.0083 kg/m3 and 13.4921 ± 0.0083 kg/m3, the mass density (273.16 K, 8006.1 kPa) was 13.5452 ± 0.0083 kg/m3 and the mass density (273.16 K, 8006.2 kPa) was 13.5452 ± 0.0083 kg/m3. The mass density (273.16 K, 11783 kPa) was 19.5712 ± 0.012 kg/m3 [middle of 5 runs], the mass density (273.16 K, 11830 kPa) was 19.6435 ± 0.017 kg/m3 [middle of 5 runs] and the mass density (273.16 K, 11855 kPa) was 19.6832 ± 0.0097 kg/m3 [middle of 5 runs]. For the same molecule, the mass density (273.16 K, 12056 kPa) was 19.9988 ± 0.0092 kg/m3 [middle of 5 runs], the mass density (273.16 K, 15586 kPa) was 25.4233 ± 0.013 kg/m3 and 25.4234 ± 0.013 kg/m3 and the mass density (273.16 K, 15587 kPa) was 25.4235 ± 0.013 kg/m3 and 25.4232 ± 0.013 kg/m3. For the same molecule, the mass density (273.16 K, 15980 kPa) was 26.017 ± 0.011 kg/m3 [middle of 5 runs], the mass density (273.16 K, 16077 kPa) was 26.1628 ± 0.011 kg/m3 and 26.1631 ± 0.011 kg/m3 and the mass density (273.16 K, 16078 kPa) was 26.164 ± 0.011 kg/m3 and 26.1636 ± 0.011 kg/m3 and 26.1633 ± 0.011 kg/m3. For the same molecule, the mass density (273.16 K, 16090 kPa) was 26.1822 ± 0.011 kg/m3 [middle of 5 runs], the mass density (273.16 K, 19645 kPa) was 31.445 ± 0.018 kg/m3 [middle of 4 runs] and the mass density (273.16 K, 19708 kPa) was 31.5381 ± 0.018 kg/m3 and 31.5379 ± 0.018 kg/m3. For the same molecule, the mass density (273.16 K, 19709 kPa) was 31.5382 ± 0.018 kg/m3 and 31.5385 ± 0.018 kg/m3 and 31.5386 ± 0.018 kg/m3, the mass density (273.16 K, 19869 kPa) was 31.7712 ± 0.016 kg/m3 and 31.7709 ± 0.016 kg/m3 and the mass density (273.16 K, 19870 kPa) was 31.7727 ± 0.016 kg/m3 and 31.7718 ± 0.016 kg/m3 and 31.7722 ± 0.016 kg/m3. For the same molecule, the mass density (273.16 K, 20242 kPa) was 32.3124 ± 0.016 kg/m3 [middle of 4 runs], the mass density (273.16 K, 20243 kPa) was 32.314 ± 0.016 kg/m3 and the mass density (273.16 K, 25434 kPa) was 39.6666 ± 0.023 kg/m3 and 39.6662 ± 0.023 kg/m3 and 39.6672 ± 0.023 kg/m3. The mass density (273.16 K, 25435 kPa) was 39.6682 ± 0.023 kg/m3 and 39.6678 ± 0.023 kg/m3, the mass density (273.16 K, 25464 kPa) was 39.7083 ± 0.023 kg/m3 and the mass density (273.16 K, 25465 kPa) was 39.7092 ± 0.023 kg/m3. For the same molecule, the mass density (273.16 K, 25466 kPa) was 39.7107 ± 0.023 kg/m3 and 39.7113 ± 0.023 kg/m3 and 39.7099 ± 0.023 kg/m3, the mass density (273.16 K, 25915 kPa) was 40.3302 ± 0.022 kg/m3 and 40.3307 ± 0.022 kg/m3 and 40.3313 ± 0.022 kg/m3 and the mass density (273.16 K, 25916 kPa) was 40.3324 ± 0.022 kg/m3 and 40.3317 ± 0.022 kg/m3. For the same molecule, the mass density (273.16 K, 25964 kPa) was 40.3998 ± 0.022 kg/m3, the mass density (273.16 K, 25965 kPa) was 40.4011 ± 0.022 kg/m3 and 40.4013 ± 0.022 kg/m3 and the mass density (273.16 K, 25966 kPa) was 40.402 ± 0.022 kg/m3. For the same molecule, the mass density (273.16 K, 31576 kPa) was 47.9567 ± 0.033 kg/m3.
